Test results published in PubChem BioAssay AID1919002 (Molecular Pharmacology Branch, DTP, NCI, 2023).
Several values for one entry are separate records, joined by “and”; a condition that tells them apart may be missing. Equal values may be shown once.

Tested on: 743489-274-T-PDC complex spheroid growth
Assay: Anticancer human tumor 743489-274-T-PDC patient-derived renal cell carcinoma cell line growth inhibition [AhR]
Settings: for viability, T/C: stronger effect = lower value
Summary of the method: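 Complex tumor spheroids co-cultured with HUVEC and human MSC stroma; AhR antagonists tested in combination with standard-of-care and investigational agents. Top concentration at or near clinical Cmax (else 10 microM), half-log dilutions; growth expressed as percent test/control.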

[1] = curve of first compound, second compound 0.1 µM
[2] = curve of first compound, second compound 0.316 µM
[3] = curve of first compound, second compound 1 µM
[4] = curve of first compound, second compound 3.16 µM
[5] = curve of first compound, second compound 10 µM
[6] = second compound 0.1 µM, first compound 0.0316 µM
[7] = second compound 0.1 µM, first compound 0.1 µM
[8] = second compound 0.1 µM, first compound 0.316 µM
[9] = second compound 0.1 µM, first compound 1 µM
[10] = second compound 0.1 µM, first compound 3.16 µM
[11] = second compound 0.1 µM, first compound 10 µM
[12] = second compound 0.316 µM, first compound 0.0316 µM
[13] = second compound 0.316 µM, first compound 0.1 µM
[14] = second compound 0.316 µM, first compound 0.316 µM
[15] = second compound 0.316 µM, first compound 1 µM
[16] = second compound 0.316 µM, first compound 3.16 µM
[17] = second compound 0.316 µM, first compound 10 µM
[18] = second compound 1 µM, first compound 0.0316 µM
[19] = second compound 1 µM, first compound 0.1 µM
[20] = second compound 1 µM, first compound 0.316 µM
[21] = second compound 1 µM, first compound 1 µM
[22] = second compound 1 µM, first compound 3.16 µM
[23] = second compound 1 µM, first compound 10 µM
[24] = second compound 3.16 µM, first compound 0.0316 µM
[25] = second compound 3.16 µM, first compound 0.1 µM
[26] = second compound 3.16 µM, first compound 0.316 µM
[27] = second compound 3.16 µM, first compound 1 µM
[28] = second compound 3.16 µM, first compound 3.16 µM
[29] = second compound 3.16 µM, first compound 10 µM
[30] = second compound 10 µM, first compound 0.0316 µM
[31] = second compound 10 µM, first compound 0.1 µM
[32] = second compound 10 µM, first compound 0.316 µM
[33] = second compound 10 µM, first compound 1 µM
[34] = second compound 10 µM, first compound 3.16 µM
[35] = second compound 10 µM, first compound 10 µM
[36] = second compound 0.1 µM, first compound 0.00316 µM
[37] = second compound 0.1 µM, first compound 0.01 µM
[38] = second compound 0.316 µM, first compound 0.00316 µM
[39] = second compound 0.316 µM, first compound 0.01 µM
[40] = second compound 1 µM, first compound 0.00316 µM
[41] = second compound 1 µM, first compound 0.01 µM
[42] = second compound 3.16 µM, first compound 0.00316 µM
[43] = second compound 3.16 µM, first compound 0.01 µM
[44] = second compound 10 µM, first compound 0.00316 µM
[45] = second compound 10 µM, first compound 0.01 µM
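Note: spheroids exposed to agents for 7 days before readout.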
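Throughout, for viability, T/C: 100% = DMSO vehicle control wells.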

SMILES	IC50 [1]	IC50 [2]	IC50 [3]	IC50 [4]	IC50 [5]	viability, T/C [6]	viability, T/C [7]	viability, T/C [8]	viability, T/C [9]	viability, T/C [12]	viability, T/C [13]	viability, T/C [14]	viability, T/C [15]	viability, T/C [18]	viability, T/C [19]	viability, T/C [20]	viability, T/C [24]	viability, T/C [25]	viability, T/C [30]	viability, T/C [31]	other results
COc1cc(C2c3cc4c(cc3C(OC3OC5COC(C)OC5C(O)C3O)C3COC(=O)C23)OCO4)cc(OC)c1O (configuration not stated) + Cc1cncc(-c2nc(NCCc3c[nH]c4ccccc34)c3ncn(C(C)C)c3n2)c1	> 10 µM	> 10 µM	> 10 µM	> 10 µM	> 10 µM	97.7%	88.2%	88%	96.8%	94.1%	82.6%	78.2%	80%	90.2%	87.6%	80.5%	95.3%	87.9%	131%	117%	viability, T/C [10]: 82.3%; viability, T/C [11]: 74.6%; viability, T/C [16]: 75.2%; viability, T/C [17]: 78.5%; viability, T/C [21]: 78.1%; viability, T/C [22]: 80.4%; viability, T/C [23]: 80.8%; viability, T/C [26]: 91.4%; viability, T/C [27]: 92.6%; viability, T/C [28]: 80.1%; viability, T/C [29]: 74.8%; viability, T/C [32]: 95.6%; viability, T/C [33]: 110%; viability, T/C [34]: 102%; viability, T/C [35]: 100%
Nc1ncn(C2CC(O)C(CO)S2)c(=O)n1 (configuration not stated)																					viability, T/C (compound 0.000949 µM): 110% and 93.5% and 116%; viability, T/C (compound 0.003 µM): 104% and 98.1% and 105%; viability, T/C (compound 0.00949 µM): 96.2% and 94.2% and 111%; viability, T/C (compound 0.03 µM): 102% and 85.6% and 96.6%; viability, T/C (compound 0.0949 µM): 97.2% and 95% and 103%; viability, T/C (compound 0.3 µM): 97.2% and 89.2% and 103%; IC50 (curve of compound): > 0.3 µM
Nc1ccn(C2OC(CO)C(O)C2(F)F)c(=O)n1 (configuration not stated) + Cc1cncc(-c2nc(NCCc3c[nH]c4ccccc34)c3ncn(C(C)C)c3n2)c1	> 10 µM	> 10 µM	> 10 µM	> 10 µM	> 10 µM	83.1%	76.7%	72.1%	65.2%	87.1%	73.2%	71.9%	62.3%	85.6%	90.8%	74.7%	104%	93.8%	138%	100%	viability, T/C [10]: 65.7%; viability, T/C [11]: 67.9%; viability, T/C [16]: 72.3%; viability, T/C [17]: 63.4%; viability, T/C [21]: 64.8%; viability, T/C [22]: 79.2%; viability, T/C [23]: 68.9%; viability, T/C [26]: 77.3%; viability, T/C [27]: 62.3%; viability, T/C [28]: 74.3%; viability, T/C [29]: 67.1%; viability, T/C [32]: 74.2%; viability, T/C [33]: 84.2%; viability, T/C [34]: 78.5%; viability, T/C [35]: 96.8%

The next lines start with results.

IC50 [1]	IC50 [2]	IC50 [3]	IC50 [4]	IC50 [5]	SMILES	viability, T/C [6]	viability, T/C [7]	viability, T/C [8]	viability, T/C [9]	viability, T/C [12]	viability, T/C [13]	viability, T/C [14]	viability, T/C [15]	viability, T/C [18]	viability, T/C [19]	viability, T/C [20]	viability, T/C [24]	viability, T/C [25]	viability, T/C [30]	viability, T/C [31]	other results
> 10 µM	> 10 µM	> 10 µM	> 10 µM	> 10 µM	COc1cc(Nc2ncc3c(n2)-c2ccc(Cl)cc2C(c2c(F)cccc2OC)=NC3)ccc1C(=O)O + Cc1cncc(-c2nc(NCCc3c[nH]c4ccccc34)c3ncn(C(C)C)c3n2)c1	94.2%	103%	84.6%	99.8%	97.7%	85%	94%	85.1%	99%	95.2%	95.9%	107%	98%	119%	126%	viability, T/C [10]: 93.7%; viability, T/C [11]: 91.8%; viability, T/C [16]: 85%; viability, T/C [17]: 78.9%; viability, T/C [21]: 86%; viability, T/C [22]: 95.3%; viability, T/C [23]: 82.4%; viability, T/C [26]: 96.1%; viability, T/C [27]: 107%; viability, T/C [28]: 90.1%; viability, T/C [29]: 98.9%; viability, T/C [32]: 101%; viability, T/C [33]: 76.8%; viability, T/C [34]: 79.4%; viability, T/C [35]: 85.8%
> 0.1 µM	> 0.1 µM	> 0.1 µM	> 0.1 µM	> 0.1 µM	CC[C@@]1(O)C(=O)OCc2c1cc1n(c2=O)Cc2cc3c(CN(C)C)c(O)ccc3nc2-1 + CC(CO)NC(=O)c1cc(-c2ccc(Cl)cc2)nn(-c2cnn(C)c2)c1=O	86.6%	86.4%			83.3%	82.3%			86.2%	79%		92.5%	88.3%	85.9%	81.4%	viability, T/C (second compound 0.1 µM, first compound 0.000316 µM): 99.8%; viability, T/C (second compound 0.1 µM, first compound 0.001 µM): 97.9%; viability, T/C [36]: 91.4%; viability, T/C [37]: 94.4%; viability, T/C (second compound 0.316 µM, first compound 0.000316 µM): 90.7%; viability, T/C (second compound 0.316 µM, first compound 0.001 µM): 96.5%; viability, T/C [38]: 102%; viability, T/C [39]: 84.7%; viability, T/C (second compound 1 µM, first compound 0.000316 µM): 96.2%; viability, T/C (second compound 1 µM, first compound 0.001 µM): 98.9%; viability, T/C [40]: 95.4%; viability, T/C [41]: 87%; viability, T/C (second compound 3.16 µM, first compound 0.000316 µM): 91.2%; viability, T/C (second compound 3.16 µM, first compound 0.001 µM): 89.9%; viability, T/C [42]: 92.4%; viability, T/C [43]: 84%; viability, T/C (second compound 10 µM, first compound 0.000316 µM): 92.4%; viability, T/C (second compound 10 µM, first compound 0.001 µM): 92.7%; viability, T/C [44]: 109%; viability, T/C [45]: 92.4%
> 10 µM	> 10 µM	> 10 µM	> 10 µM	> 10 µM	O=C(C=Cc1cccc(S(=O)(=O)Nc2ccccc2)c1)NO + Cc1cncc(-c2nc(NCCc3c[nH]c4ccccc34)c3ncn(C(C)C)c3n2)c1	88.3%	87.7%	85.9%	77.5%	91.6%	95%	82.4%	72.6%	98.1%	94.3%	88.4%	102%	104%	114%	118%	viability, T/C [10]: 69.1%; viability, T/C [11]: 51.4%; viability, T/C [16]: 66.6%; viability, T/C [17]: 52.4%; viability, T/C [21]: 70.6%; viability, T/C [22]: 67.5%; viability, T/C [23]: 52.7%; viability, T/C [26]: 94%; viability, T/C [27]: 82%; viability, T/C [28]: 73.1%; viability, T/C [29]: 54.6%; viability, T/C [32]: 120%; viability, T/C [33]: 102%; viability, T/C [34]: 78%; viability, T/C [35]: 68.1%
> 1 µM	> 1 µM	> 1 µM	> 1 µM	> 1 µM	CC1COCCN1c1cc(-c2ccnn2C)c2ccnc(-c3ccn[nH]3)c2n1 (configuration not stated) + Cc1ccccc1N=Nc1ccc(NC(=O)c2ccnn2C)c(C)c1	93.9%	95.9%	88.5%	78.4%	89.6%	93.3%	99.2%	75.3%	92%	86.5%	88.2%	88%	82.8%	96.2%	84.9%	viability, T/C [36]: 92.8%; viability, T/C [37]: 94.4%; viability, T/C [38]: 89.7%; viability, T/C [39]: 101%; viability, T/C [40]: 93.4%; viability, T/C [41]: 98.5%; viability, T/C [21]: 68.1%; viability, T/C [42]: 87.6%; viability, T/C [43]: 86.8%; viability, T/C [26]: 76.4%; viability, T/C [27]: 76.3%; viability, T/C [44]: 103%; viability, T/C [45]: 94.9%; viability, T/C [32]: 73.5%; viability, T/C [33]: 58.6%
